In ChEMBL document CHEMBL1649349, “Discovery of a novel nitroimidazolyl-oxazolidinone hybrid with potent anti Gram-positive activity: Synthesis and antibacterial evaluation” (Eur J Med Chem, 2011):
≈ marks a conversion by molar mass, not a printed value.

Tests used:
Staphylococcus aureus [1] = experiment: Antimicrobial activity against Staphylococcus aureus ATCC 6538p by conventional agar-dilution method; type: functional
Staphylococcus aureus [2] = experiment: Antimicrobial activity against methicillin-resistant Staphylococcus aureus 3 by conventional agar-dilution method; type: functional
Escherichia coli = experiment: Antimicrobial activity against Escherichia coli ATCC 8739 by conventional agar-dilution method; type: functional
Micrococcus luteus = experiment: Antimicrobial activity against Micrococcus luteus ATCC 9341 by conventional agar-dilution method; type: functional
[3] = test system: Corynebacterium glutamicum; experiment: Antimicrobial activity against Corynebacterium glutamicum ATCC 13032 by conventional agar-dilution method; type: functional
[4] = test system: Staphylococcus saprophyticus; experiment: Antimicrobial activity against Staphylococcus saprophyticus ATCC 15305 by conventional agar-dilution method; type: functional
Mammaliicoccus lentus = experiment: Antimicrobial activity against Staphylococcus lentus ATCC 29070 by conventional agar-dilution method; type: functional
Pseudomonas aeruginosa = experiment: Antimicrobial activity against Pseudomonas aeruginosa ATCC 9027 by conventional agar-dilution method; type: functional
Staphylococcus aureus [5] = experiment: Antimicrobial activity against methicillin-resistant Staphylococcus aureus 17 by conventional agar-dilution method; type: functional
Staphylococcus xylosus = experiment: Antimicrobial activity against Staphylococcus xylosus ATCC 2997 by conventional agar-dilution method; type: functional
Bacillus subtilis = experiment: Antimicrobial activity against Bacillus subtilis PTCC 1023 by conventional agar-dilution method; type: functional
[6] = test system: Staphylococcus epidermidis; experiment: Antimicrobial activity against Staphylococcus epidermidis ATCC 12228 by conventional agar-dilution method; type: functional
[7] = Cytotoxicity against mouse NIH/3T3 cells by MTT colorimetric assay; type: cell-based; settings: NIH3T3
Klebsiella pneumoniae = experiment: Antimicrobial activity against Klebsiella pneumoniae ATCC 10031 by conventional agar-dilution method; type: functional
Staphylococcus warneri = experiment: Antimicrobial activity against Staphylococcus warneri ATCC 27836 by conventional agar-dilution method; type: functional
Staphylococcus aureus [8] = experiment: Antimicrobial activity against methicillin-resistant Staphylococcus aureus 5 by conventional agar-dilution method; type: functional

Compound | MIC (Staphylococcus aureus [1]) | MIC (Staphylococcus aureus [2]) | MIC (Escherichia coli) | MIC (Micrococcus luteus) | MIC [3] | MIC [4] | MIC (Mammaliicoccus lentus) | MIC (Pseudomonas aeruginosa) | MIC (Staphylococcus aureus [5]) | MIC (Staphylococcus xylosus) | MIC (Bacillus subtilis) | MIC [6] | IC50 [7] | MIC (Klebsiella pneumoniae) | MIC (Staphylococcus warneri) | MIC (Staphylococcus aureus [8])
CC(=O)NC[C@H]1CN(c2ccc(N3CCN(c4nnc(-c5ccc([N+](=O)[O-])s5)s4)CC3)c(F)c2)C(=O)O1 | 0.098 µg/mL (≈ 0.179 µM) | 0.195 µg/mL (≈ 0.356 µM) | > 100 µg/mL | 6.25 µg/mL (≈ 11.4 µM) | 6.25 µg/mL (≈ 11.4 µM) | 0.195 µg/mL (≈ 0.356 µM) | 0.098 µg/mL (≈ 0.179 µM) | > 100 µg/mL | 0.098 µg/mL (≈ 0.179 µM) | 0.098 µg/mL (≈ 0.179 µM) | 0.781 µg/mL (≈ 1.43 µM) | 0.024 µg/mL (≈ 0.0438 µM) | 184 µg/mL (≈ 336 µM) | 100 µg/mL (≈ 183 µM) | 0.049 µg/mL (≈ 0.0895 µM) | 6.25 µg/mL (≈ 11.4 µM)
CC(=O)NC[C@H]1CN(c2ccc(N3CCN(c4nnc(-c5ccc([N+](=O)[O-])o5)s4)CC3)c(F)c2)C(=O)O1 | 0.012 µg/mL (≈ 0.0226 µM) | 0.049 µg/mL (≈ 0.0922 µM) | > 100 µg/mL | 0.391 µg/mL (≈ 0.736 µM) | 0.195 µg/mL (≈ 0.367 µM) | 0.024 µg/mL (≈ 0.0452 µM) | 0.012 µg/mL (≈ 0.0226 µM) | > 100 µg/mL | 0.012 µg/mL (≈ 0.0226 µM) | 0.024 µg/mL (≈ 0.0452 µM) | 0.391 µg/mL (≈ 0.736 µM) | 0.006 µg/mL (≈ 0.0113 µM) | 21.8 µg/mL (≈ 41 µM) | 50 µg/mL (≈ 94.1 µM) | 0.006 µg/mL (≈ 0.0113 µM) | 0.195 µg/mL (≈ 0.367 µM)
CC(=O)NC[C@H]1CN(c2ccc(N3CCN(c4nnc(-c5ncc([N+](=O)[O-])n5C)s4)CC3)c(F)c2)C(=O)O1 | 0.098 µg/mL (≈ 0.18 µM) | 0.391 µg/mL (≈ 0.717 µM) | > 100 µg/mL | 0.195 µg/mL (≈ 0.357 µM) | 0.195 µg/mL (≈ 0.357 µM) | 0.024 µg/mL (≈ 0.044 µM) | 0.098 µg/mL (≈ 0.18 µM) | > 100 µg/mL | 0.024 µg/mL (≈ 0.044 µM) | 0.049 µg/mL (≈ 0.0898 µM) | 0.098 µg/mL (≈ 0.18 µM) | 0.024 µg/mL (≈ 0.044 µM) | > 200 µg/mL | 0.781 µg/mL (≈ 1.43 µM) | 0.006 µg/mL (≈ 0.011 µM) | 0.195 µg/mL (≈ 0.357 µM)
CC(=O)NC[C@H]1CN(c2ccc(N3CCNCC3)c(F)c2)C(=O)O1 | 12.5 µg/mL (≈ 37.2 µM) | 25 µg/mL (≈ 74.3 µM) | 50 µg/mL (≈ 149 µM) | 1.56 µg/mL (≈ 4.65 µM) | 1.56 µg/mL (≈ 4.65 µM) | 3.12 µg/mL (≈ 9.29 µM) | 12.5 µg/mL (≈ 37.2 µM) | > 100 µg/mL | 25 µg/mL (≈ 74.3 µM) | 3.12 µg/mL (≈ 9.29 µM) | 12.5 µg/mL (≈ 37.2 µM) | 6.25 µg/mL (≈ 18.6 µM) | > 200 µg/mL | 25 µg/mL (≈ 74.3 µM) | 18 µg/mL (≈ 53.5 µM) | 12.5 µg/mL (≈ 37.2 µM)
O=C(O)c1cn(C2CC2)c2cc(N3CCNCC3)c(F)cc2c1=O [CIPROFLOXACIN] | 0.195 µg/mL (≈ 0.589 µM) | 0.391 µg/mL (≈ 1.18 µM) |  | 3.12 µg/mL (≈ 9.43 µM) | 0.391 µg/mL (≈ 1.18 µM) | 0.098 µg/mL (≈ 0.296 µM) | 0.781 µg/mL (≈ 2.36 µM) | 0.0391 µg/mL (≈ 0.118 µM) | 0.391 µg/mL (≈ 1.18 µM) | 0.391 µg/mL (≈ 1.18 µM) | 0.195 µg/mL (≈ 0.589 µM) | 0.391 µg/mL (≈ 1.18 µM) |  | 0.003 µg/mL (≈ 0.00905 µM) | 0.195 µg/mL (≈ 0.589 µM) | 0.391 µg/mL (≈ 1.18 µM)
CC(=O)NC[C@H]1CN(c2ccc(N3CCOCC3)c(F)c2)C(=O)O1 [LINEZOLID] | 0.781 µg/mL (≈ 2.32 µM) | 0.781 µg/mL (≈ 2.32 µM) | > 100 µg/mL | 0.781 µg/mL (≈ 2.32 µM) | 0.781 µg/mL (≈ 2.32 µM) | 0.781 µg/mL (≈ 2.32 µM) | 1.56 µg/mL (≈ 4.63 µM) | > 100 µg/mL | 0.781 µg/mL (≈ 2.32 µM) | 0.781 µg/mL (≈ 2.32 µM) | 0.391 µg/mL (≈ 1.16 µM) | 0.781 µg/mL (≈ 2.32 µM) |  | 6.25 µg/mL (≈ 18.5 µM) | 0.781 µg/mL (≈ 2.32 µM) | 0.781 µg/mL (≈ 2.32 µM)
